Assay [1] concerns EBV positive human lymphoma HG-3 cells. The assay can be described thus: Alamar blue proliferation assay in HG-3 cells. It counts as cell-based. Particulars: 72 hours; for anti-proliferative effect on HG-3 cells (in words): Alamar blue, FIG. 1 and Table 1; for IC50: Homo sapiens, concentration range 0.01-10 μM, Alamar blue assay, read-out: Anti-proliferative IC50 values. On the procedure: One million human EBV positive lymphoma cell lines HG3 and LCL070903 (Rosén et al., 2012) were cultured in RPMI1640 media supplemented with 10% FCS. […] Following treatment cells were harvested and washed with 1× PBS. Total RNA was extracted as described below.
Alamarblue® and PrestoBlue proliferation assays were performed to determine the growth kinetics of EBV inhibitor treated cells. Alamar blue® and PrestoBlue consists of a cell permeable substrate resazurin. In metabolically active and proliferating cells, resazurin is converted to resorufin due to an intrinsic reducing power of live cells and produces a red fluorescence. Therefore production of resorufin serves as an indicator of the viability of the cell population.
Proliferation assays were performed by seeding 5000 cells/well in a 96 well plate. […] Each concentration was tested in 4 replicates. To determine the growth kinetics, 10 μl of Alamar blue® or PrestoBlue (Invitrogen) was added to each well and incubated for 4 hours. Readout was taken using Tecan F500 (Tecan) multiplate reader or Varioskan LUX (ThermoFisher) multiplate reader.
In order to determine anti-cancer activity of compounds in oncoviral driven cells, an EBV infected human Chronic Lymphocytic Leukemia cell line HG-3 was used (Rosen et al., 2012). In brief, HG-3 cells were plated in a 96 well plate and treated with an increasing concentration of compounds.

The test system of the next assay is BATF1. The assay is described as follows: EBV target gene downregulation (qPCR) in HG-3 cells: BATF1. It is filed as cell-based. Particulars: Homo sapiens, mRNA by qPCR, Table 2. Here is the method:
(§1) One million human EBV positive lymphoma cell lines HG3 and LCL070903 (Rosén et al., 2012) were cultured in RPMI1640 media supplemented with 10% FCS. For RNA expression analysis cells were treated with compounds at 10 μM concentration and for proliferation assay cells were treated at a concentration range of 0.01-100 μM. Following treatment cells were harvested and washed with 1× PBS. Total RNA was extracted as described below.
(§2) Total RNA was extracted from cells using TRIzol® extraction kit (Invitrogen). Briefly, 1×10^6 cells were washed with ice-cold 1× PBS and lysed in 1 ml of TRIzol® solution for 5 minutes at room temperature to dissociate nucleoprotein complexes. Lysed cells were then treated with 200 μl of chloroform and shaked vigorously for 15-30 seconds and incubated at room temperature for 2-3 minutes. […]
(§3) In first protocol, SuperScript™ RT (Invitrogen) was used for reverse transcription reaction. RNA concentration was measured using NanoDrop®ND-1000 spectrophotometer (Witec AG) and 500 ng of total RNA was mixed with a 10 mM mix of dNTPs and 100 ng of random primers. […]
(§4) In second protocol, reverse transcription was performed using PrimeScript RT Master Mix (Takara). RNA concentration was measured using NanoDrop®ND-1000 spectrophotometer (Witec AG) and 1 μg of total RNA was mixed with 4 μL 5X PrimeScript RT Master Mix in a total reaction volume of 20 μL. […]
In general terms: Quantitative PCR measures a nucleic acid by following its amplification.

The test system of the next assay is CD21. The assay can be described thus: EBV target gene downregulation (qPCR) in HG-3 cells: CD21. It counts as cell-based. Particulars: Homo sapiens, mRNA by qPCR, Table 2. Here is the method: as §1, §2, §3, §4
In another assay the test system is NOTCH target gene HES1. The assay can be described thus: NOTCH target gene HES1 downregulation in RPMI 8402 cells. It is filed as cell-based, human. Also noted: Percentage inhibition of NOTCH target gene HES1: concentration or dose not given beside the values. Particulars: RPMI 8402 cells (NOTCH1 positive, EBV negative). On the procedure:
(§5) Total RNA was extracted from cells using TRIzol® extraction kit (Invitrogen). Briefly, 1×10^6 cells were washed with ice-cold 1× PBS and lysed in 1 ml of TRIzol® solution for 5 minutes at room temperature to dissociate nucleoprotein complexes. Lysed cells were then treated with 200 μl of chloroform and shaked vigorously for 15-30 seconds and incubated at room temperature for 2-3 minutes. The samples were centrifuged at 14000 rpm using Eppendorf table top centrifuge for 10 minutes at 4° C. Following centrifugation, upper aqueous phase was transferred to new eppendorf tubes. To precipitate total RNA 500 μl of […] was added to the separated aqueous phase and incubated at room temperature for 10 minutes. A RNA pellet was obtained by centrifuging the samples at 4° C. for 10 minutes. RNA pellet obtained was washed with 1 ml ice cold 75% ethanol and spun down at 14000 rpm at 4° C. RNA pellet was dried off of excess of ethanol and resuspended in 40 IA DPEC water.
(§6) Total RNA extracted from the cell was used to synthesize cDNA by reverse transcription reaction. Reverse transcription was performed according to one of the two following protocols.
(§7) QRT-PCR was carried out using 7900 HT Fast Real-Time PCR system (Applied Biosystems) or QuantStudio 3 system (ThermoFisher). Briefly, 12.5 ng of template cDNA was used with a primer concentration of 0.5 μM each and lx SYBR Green dye in a final volume of 10 μL in a 96 well or 384 well plate format.
(§8) To determine the ability of compounds to downregulate EBV driven gene expression, HG-3 cells were treated with selected compounds and percentage inhibition of EBV target genes was determined by quantitative PCR. […] To further determine the anti-oncoviral specificity of compounds, these compounds were tested for their ability to downregulate a NOTCH target gene HES1 in a NOTCH1 positive (EBV negative) human leukemic cell line RPMI8402.

The test system of a further assay is LMP1. The assay can be described thus: EBV target gene downregulation (qPCR) in HG-3 cells: LMP1. It counts as cell-based. Particulars: Homo sapiens, mRNA by qPCR, Table 2. On the procedure: as §1, §5, §6
(§9) In first protocol, SuperScript™ RT (Invitrogen) was used for reverse transcription reaction. RNA concentration was measured using NanoDrop®ND-1000 spectrophotometer (Witec AG) and 500 ng of total RNA was mixed with a 10 mM mix of dNTPs and 100 ng of random primers. The reaction mix was incubated at 65° C. for 5 minutes and quickly incubated on ice for 1 minute. Following incubation on ice, 5× first strand buffer and 0.1M DTT were added and mix was incubated for 2 minutes at 25° C. To start the reverse transcription reaction, 200U of SuperScrip™ II RT was added to the reaction mix and incubated at 42° C. for 50 minutes. The reaction was stopped by incubating the reaction mix at 75° C. for 15 minutes.
as §4
(§10) To determine the ability of compounds to downregulate EBV driven gene expression, HG-3 cells were treated with selected compounds and percentage inhibition of EBV target genes was determined by quantitative PCR. […]

A further assay deals with RUNX3. The assay can be described thus: EBV target gene downregulation (qPCR) in HG-3 cells: RUNX3. It is filed as cell-based. Particulars: Homo sapiens, mRNA by qPCR, Table 2. On the procedure: as §1, §5, §6, §9, §4, §10
The next assay relates to EBNA2. The assay can be described thus: EBV target gene downregulation (qPCR) in HG-3 cells: EBNA2. It is filed as cell-based. Particulars: Homo sapiens, mRNA by qPCR, Table 2. Here is the method: as §1, §5, §6, §9
In second protocol, reverse transcription was performed using PrimeScript RT Master Mix (Takara). RNA concentration was measured using NanoDrop®ND-1000 spectrophotometer (Witec AG) and 1 μg of total RNA was mixed with 4 μL 5X PrimeScript RT Master Mix in a total reaction volume of 20 μL. The reaction mix was incubated at 37° C. for 15 minutes followed by heat inactivation at 85° C. for 5 seconds.
as §7, §8
Upon infection of human cells, EBV is known to induce cancerous transformation of cells via upregulation of host as well as viral genes (e.g LMP1, EBNA2, BATF1, BMI1 and CD21). To determine the ability of compounds to downregulate EBV driven gene expression, HG-3 and LCL070903 cells were treated with selected compounds and percentage inhibition of EBV target genes was determined by quantitative PCR. As shown in Table 5 and Table 6, compounds down regulate EBV target genes such as BMI1 in HG-3 and LCL070903 cells, respectively (FIGS. 3 and 4).

Bounds are passed on as bounds.

In general, IC50 refers to the concentration that gives 50% inhibition. Usually inhibition stands for the relative decrease from the control value, in per cent. For the molecule `CC(C)(C)c1ccc(Oc2ccc(NCc3cccnc3)cn2)cc1` [Example 2, 6-(4-(tert-Butyl)phenoxy)-N-(pyridin-3-ylmethyl)pyridin-3-amine], in assay [1], the “anti-proliferative effect on HG-3 cells (in words)” value (from here on “anti-proliferative effect”) is “demonstrate anti-proliferative effect” and the IC50 came to 2.2 µM. In the assay with BATF1, this molecule had an inhibition at 10 µM greater than 90%. The inhibition at 10 µM in the assay with CD21 was greater than 90%. Further, in the assay with NOTCH target gene HES1, the “Percentage inhibition of NOTCH target gene HES1” value (“Percentage inhibition” below) is 0% and the “downregulation of NOTCH target gene HES1 (in words)” value (“downregulation” for short) is on record as “do not modulate expression of this gene”.
Turning to `CC(C)(C)c1ccc(Oc2ccc(NCc3ccccn3)cn2)cc1` [Example 3, 6-(4-(tert-Butyl)phenoxy)-N-(pyridin-2-ylmethyl)pyridin-3-amine], in assay [1], the “anti-proliferative effect” value is listed as “demonstrate anti-proliferative effect” and the IC50 was 5.4 µM. For the same molecule, 10 µM produced 37% inhibition with LMP1. This molecule also registered an inhibition at 10 µM in the assay with RUNX3 of 55%. Also, 10 µM produced 16% inhibition with EBNA2. In the assay with NOTCH target gene HES1, the “Percentage inhibition” value is on record as 0% and the “downregulation” value was “do not modulate expression of this gene”.
As to `CC(C)(C)c1ccc(Oc2ccc(NCc3cnc(N)nc3)cn2)cc1` [Example 5, 5-(((6-(4-(tert-Butyl)phenoxy)pyridin-3-yl)amino)methyl)pyrimidin-2-amine], the “anti-proliferative effect” value in assay [1] is recorded as “demonstrate anti-proliferative effect”. In assay [1], the IC50 turned out to be 4.8 µM. Also, the inhibition at 10 µM in the assay with LMP1 worked out at 22%; in the assay on RUNX3, 57%; with EBNA2, 46%. Besides, the “Percentage inhibition” value with NOTCH target gene HES1 was 0%. Also, the “downregulation” value in the assay on NOTCH target gene HES1 was “do not modulate expression of this gene”.

(Values after US20220185793A1, “COMPOUNDS FOR THE TREATMENT OF ONCOVIRUS INDUCED CANCER AND METHODS OF USE THEREOF” (Cellestia Biotech AG, priority 2019, published 2022).)
